In PubChem BioAssay AID1963969 (Molecular Pharmacology Branch, DTP, NCI, 2024):

Test system: 817829-284-R-J1-PDC multi-cell spheroid viability
Assay: Anticancer human tumor 817829-284-R-J1-PDC patient-derived colon adenocarcinoma cell line growth inhibition [PI3K]
Conditions: for IC50: curve of first compound; for viability, T/C: stronger effect = lower value; active = viability on the fitted dose curve at most 10% of control; inactive = the rest
Summary of the method: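 Stroma-containing spheroids: tumor line, pooled-donor HUVEC, hMSC. Treatments: targeted agents with PI3K inhibitors. Dosing: clinically relevant, half-log spacing, 10 microM ceiling without known Cmax. Read-out: cell viability.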

[1] = second compound 0.00316 µM, first compound 0.0316 µM
[2] = second compound 0.00316 µM, first compound 0.1 µM
[3] = second compound 0.00316 µM, first compound 0.316 µM
[4] = second compound 0.00316 µM, first compound 1 µM
[5] = second compound 0.00316 µM, first compound 3.16 µM
[6] = second compound 0.00316 µM, first compound 10 µM
[7] = second compound 0.01 µM, first compound 0.0316 µM
[8] = second compound 0.01 µM, first compound 0.1 µM
[9] = second compound 0.01 µM, first compound 0.316 µM
[10] = second compound 0.01 µM, first compound 1 µM
[11] = second compound 0.01 µM, first compound 3.16 µM
[12] = second compound 0.01 µM, first compound 10 µM
[13] = second compound 0.0316 µM, first compound 0.0316 µM
[14] = second compound 0.0316 µM, first compound 0.1 µM
[15] = second compound 0.0316 µM, first compound 0.316 µM
[16] = second compound 0.0316 µM, first compound 1 µM
[17] = second compound 0.0316 µM, first compound 3.16 µM
[18] = second compound 0.0316 µM, first compound 10 µM
[19] = second compound 0.1 µM, first compound 0.0316 µM
[20] = second compound 0.1 µM, first compound 0.1 µM
[21] = second compound 0.1 µM, first compound 0.316 µM
[22] = second compound 0.1 µM, first compound 1 µM
[23] = second compound 0.1 µM, first compound 3.16 µM
[24] = second compound 0.1 µM, first compound 10 µM
[25] = second compound 0.316 µM, first compound 0.0316 µM
[26] = second compound 0.316 µM, first compound 0.1 µM
[27] = second compound 0.316 µM, first compound 0.316 µM
[28] = second compound 0.316 µM, first compound 1 µM
[29] = second compound 0.316 µM, first compound 3.16 µM
[30] = second compound 0.316 µM, first compound 10 µM
[31] = second compound 1 µM, first compound 0.0316 µM
[32] = second compound 1 µM, first compound 0.1 µM
[33] = second compound 1 µM, first compound 0.316 µM
[34] = second compound 1 µM, first compound 1 µM
[35] = second compound 1 µM, first compound 3.16 µM
[36] = second compound 1 µM, first compound 10 µM
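Also: spheroids exposed to agents for seven days before readout.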
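For viability, T/C in this document: percent of vehicle DMSO control viability which is 100%.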

CC1(C)CCC(CN2CCN(c3ccc(C(=O)NS(=O)(=O)c4ccc(NCC5CCOCC5)c([N+](=O)[O-])c4)c(Oc4cnc5[nH]ccc5c4)c3)CC2)=C(c2ccc(Cl)cc2)C1 + CC(Nc1ccc2c(c1)OCCn1cc(N3C(=O)OCC3C(F)F)nc1-2)C(N)=O
0.605 µM: IC50 (second compound 0.1 µM)
2.67 µM: IC50 (second compound 0.0316 µM)
0.0316 µM: IC50 (second compound 0.316 µM)
inactive: viability, T/C [1] 74.4% | viability, T/C [2] 87.8% | viability, T/C [3] 38.3% | viability, T/C [4] 71.4% | viability, T/C [5] 62.4% | viability, T/C [7] 55.4% | viability, T/C [8] 64.8% | viability, T/C [9] 106% | viability, T/C [10] 69.1% | viability, T/C [11] 57.3% | viability, T/C [13] 66.2% | viability, T/C [14] 107% | viability, T/C [15] 60.8% | viability, T/C [16] 65.3% | viability, T/C [17] 49.8% | viability, T/C [19] 78.9% | viability, T/C [20] 54.8% | viability, T/C [21] 58.1% | viability, T/C [22] 39.4% | viability, T/C [23] 39.2% | viability, T/C [25] 45.7% | viability, T/C [26] 44.6% | viability, T/C [27] 59.5% | viability, T/C [28] 41.2% | viability, T/C [29] 60.4% | viability, T/C [31] 77.2% | viability, T/C [32] 44% | viability, T/C [33] 70.8% | viability, T/C [34] 59% | viability, T/C [35] 49%
2.79 µM: IC50 (second compound 1 µM)
active: viability, T/C [6] 5.89% | viability, T/C [12] 5.49% | viability, T/C [18] 6.29% | viability, T/C [24] 3.75% | viability, T/C [30] 3.08% | viability, T/C [36] 6.25%
3.7 µM: IC50 (second compound 0.01 µM)
4.08 µM: IC50 (second compound 0.00316 µM)

C#Cc1c(F)ccc2cc(O)cc(-c3ncc4c(N5CC6CCC(C5)N6)nc(OCC56CCCN5CC(F)C6)nc4c3F)c12 (stereo unspecified) + CC(Nc1ccc2c(c1)OCCn1cc(N3C(=O)OCC3C(F)F)nc1-2)C(N)=O
< 0.0316 µM: IC50 (second compound 1 µM)
> 10 µM: IC50 (second compound 0.0316 µM) | IC50 (second compound 0.1 µM)
8.67 µM: IC50 (second compound 0.00316 µM)
5.16 µM: IC50 (second compound 0.01 µM)
inactive: viability, T/C [1] 83.7% | viability, T/C [2] 75.3% | viability, T/C [3] 87.4% | viability, T/C [4] 77.4% | viability, T/C [5] 69.9% | viability, T/C [6] 47.2% | viability, T/C [7] 90% | viability, T/C [8] 84.8% | viability, T/C [9] 72.7% | viability, T/C [10] 79.9% | viability, T/C [11] 56.1% | viability, T/C [12] 38.3% | viability, T/C [13] 74.9% | viability, T/C [14] 69.8% | viability, T/C [15] 58.5% | viability, T/C [16] 65.9% | viability, T/C [17] 63.5% | viability, T/C [18] 47.8% | viability, T/C [19] 64.9% | viability, T/C [20] 79.8% | viability, T/C [21] 56.1% | viability, T/C [22] 80.5% | viability, T/C [23] 77.8% | viability, T/C [24] 39% | viability, T/C [25] 53.5% | viability, T/C [26] 83.5% | viability, T/C [27] 48.6% | viability, T/C [28] 71.2% | viability, T/C [29] 54.7% | viability, T/C [30] 32.2% | viability, T/C [31] 45.1% | viability, T/C [32] 45.3% | viability, T/C [33] 47.8% | viability, T/C [34] 60.3% | viability, T/C [35] 59.9% | viability, T/C [36] 30.2%
4.35 µM: IC50 (second compound 0.316 µM)

CC(Cn1ccc(-c2ccc(C#N)c(Cl)c2)n1)NC(=O)c1cc(C(C)O)[nH]n1 (stereo unspecified) + CC(Nc1ncnc2nc[nH]c12)c1cc2cccc(Cl)c2c(=O)n1-c1ccccc1
> 10 µM: IC50 (second compound 0.0316 µM) | IC50 (second compound 0.316 µM) | IC50 (second compound 1 µM) | IC50 (second compound 3.16 µM) | IC50 (second compound 10 µM)
8.49 µM: IC50 (second compound 0.1 µM)
inactive: viability, T/C [13] 71.5% | viability, T/C [14] 78.8% | viability, T/C [15] 98.5% | viability, T/C [16] 64.6% | viability, T/C [17] 75.5% | viability, T/C [18] 75.1% | viability, T/C [19] 106% | viability, T/C [20] 82.7% | viability, T/C [21] 95.7% | viability, T/C [22] 83.2% | viability, T/C [23] 87.7% | viability, T/C [24] 43.4% | viability, T/C [25] 109% | viability, T/C [26] 82.7% | viability, T/C [27] 105% | viability, T/C [28] 66.6% | viability, T/C [29] 99.8% | viability, T/C [30] 66.3% | viability, T/C [31] 83.9% | viability, T/C [32] 78.8% | viability, T/C [33] 100% | viability, T/C [34] 74.5% | viability, T/C [35] 91.3% | viability, T/C [36] 102% | viability, T/C (second compound 3.16 µM, first compound 0.0316 µM) 90.9% | viability, T/C (second compound 3.16 µM, first compound 0.1 µM) 53.7% | viability, T/C (second compound 3.16 µM, first compound 0.316 µM) 79.1% | viability, T/C (second compound 3.16 µM, first compound 1 µM) 90.4% | viability, T/C (second compound 3.16 µM, first compound 3.16 µM) 47.5% | viability, T/C (second compound 3.16 µM, first compound 10 µM) 71.4% | viability, T/C (second compound 10 µM, first compound 0.0316 µM) 67.6% | viability, T/C (second compound 10 µM, first compound 0.1 µM) 48.2% | viability, T/C (second compound 10 µM, first compound 0.316 µM) 71.3% | viability, T/C (second compound 10 µM, first compound 1 µM) 51% | viability, T/C (second compound 10 µM, first compound 3.16 µM) 67.5% | viability, T/C (second compound 10 µM, first compound 10 µM) 40.1%
